Laboratory results as given in PubChem BioAssay (NCI).
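Results reflect a 48-hour exposure of cells in 96-well plates to compound at five concentrations. GI50 = concentration required for 50% inhibition of growth. The concentration for full growth arrest is given as TGI.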

Key:
Test in all cases: NCI anticancer screen, dose series, 48 h
SNB-75 CNS = tested on: SNB-75 CNS
HOP-62 NSCLC = tested on: HOP-62 NSCLC
KM12 colon = tested on: KM12 colon
SK-MEL-5 melanoma = tested on: SK-MEL-5 melanoma
SK-OV-3 ovarian = tested on: SK-OV-3 ovarian
NCI-H522 lung = tested on: NCI-H522 lung
T-47D breast = tested on: T-47D breast
K-562 leukemia = tested on: K-562 leukemia
CCRF-CEM leukemia = tested on: CCRF-CEM leukemia
MOLT-4 leukemia = tested on: MOLT-4 leukemia

Compound | TGI (SNB-75 CNS) [µM] | TGI (HOP-62 NSCLC) [µM] | TGI (KM12 colon) [µM] | TGI (SK-MEL-5 melanoma) [µM] | TGI (SK-OV-3 ovarian) [µM] | TGI (NCI-H522 lung) [µM] | TGI (T-47D breast) [µM] | TGI (K-562 leukemia) [µM] | TGI (CCRF-CEM leukemia) [µM] | TGI (MOLT-4 leukemia) [µM] | GI50 (SNB-75 CNS) [µM] | GI50 (HOP-62 NSCLC) [µM] | GI50 (KM12 colon) [µM] | GI50 (SK-MEL-5 melanoma) [µM] | GI50 (SK-OV-3 ovarian) [µM] | GI50 (NCI-H522 lung) [µM] | GI50 (CCRF-CEM leukemia) [µM] | GI50 (MOLT-4 leukemia) [µM] | GI50 (K-562 leukemia) [µM] | GI50 (T-47D breast) [µM]
C/C(=N\NS(=O)(=O)c1ccc(C)cc1)P(=O)(O)O | > 100 | > 100 | > 100 | > 100 | > 100 | > 100 | > 100 | > 100 | – | – | – | – | – | – | – | – | – | – | – | –
CC(Nc1ccc(S(=O)(=O)N=C(N)N)cc1)c1c2ccccc2nc2ccccc12 (configuration not stated) | 79.7 | – | > 100 | – | 73.6 | 38 | – | 99.4 | 60.5 | 48.1 | – | – | – | – | – | – | – | – | – | –
COc1ccc2ccccc2c1C1NC(=O)c2ccccc2N1 (configuration not stated) | – | > 100 | 19.9 | 6.31 | 9.29 | > 25.6 | > 100 | – | > 28.3 | 9.2 | – | – | – | – | – | – | – | – | – | –
O=C(COc1cc(O)c2c(=O)cc(-c3ccccc3)oc2c1)Nc1ccccc1C(F)(F)F | 4.41 | 8.19 | > 100 | 25.4 | 50.7 | > 100 | – | > 100 | 64.1 | > 100 | 1.65 | 2.62 | 8.17 | 4.1 | 14.9 | 6.77 | 19.6 | 5.46 | 5.03 | –
O=C(Nc1ccc(Cl)c(Cl)c1)Nc1c(Oc2ccc(Cl)c(Cl)c2)ccc(Cl)c1S(=O)(=O)O | 4.53 | – | > 100 | 3.11 | – | – | – | > 100 | > 100 | > 100 | 1.51 | – | 0.927 | 1.33 | – | – | 4.03 | 4.1 | 0.516 | –
C/C1=C/C(=O)O[C@@H]2C[C@@H](CC[C@H](C)/C=C\C=C\CC1)O[C@@](O)([C@@H]1CSC(=O)N1)C2 | 0.332 | 0.724 | > 10 | > 2.76 | > 9.4 | – | – | > 10 | > 10 | > 10 | – | – | – | – | – | – | – | – | – | –
CO/N=C(\C)c1ccc(Nc2cc(-c3ccccc3)nc3ccc(OC)cc23)cc1 | > 100 | – | – | 3.31 | 60.4 | > 100 | > 100 | > 100 | – | 25.2 | 23 | – | – | 1.77 | 15.2 | 4.4 | – | 3.38 | 5.42 | 33.7
O=c1ncc(F)cn1C1OC(CO)C(O)C1O (configuration not stated) | > 65.1 | > 100 | > 51.2 | – | > 100 | > 70.2 | – | > 100 | > 63.6 | > 54.3 | – | – | – | – | – | – | – | – | – | –
COC(=O)C(C(=O)OC)C1CCCC(=O)C1 (configuration not stated) | > 100 | > 100 | > 100 | > 100 | > 100 | – | – | > 100 | > 100 | > 100 | – | – | – | – | – | – | – | – | – | –
COC(=O)C(C(=O)C(=O)Nc1ccc([N+](=O)[O-])cc1[N+](=O)[O-])c1nc2ccc(Cl)cc2[nH]c1=O (configuration not stated) | > 100 | > 100 | > 100 | > 100 | > 100 | – | – | > 100 | > 100 | > 100 | – | – | – | – | – | – | – | – | – | –
CN1C(=O)C2C3C=C4c5ccccc5N(c5ccccc5)C4(C2C1=O)[C@H]1C(=O)N(C)C(=O)[C@@H]31 (some centres not stated) | > 100 | > 100 | > 100 | – | > 100 | > 100 | – | > 100 | > 100 | > 100 | – | – | – | – | – | – | – | – | – | –
Cc1ccc(S(=O)(=O)NC2(C=O)CCCC3CCCCC32)cc1 (configuration not stated) | > 100 | > 100 | > 100 | > 100 | > 100 | > 100 | – | > 100 | > 100 | > 100 | – | – | – | – | – | – | – | – | – | –
NC(=O)/N=C1/CCC2C3CCCC2C13 | > 100 | > 100 | > 100 | > 100 | > 100 | > 100 | – | > 100 | > 100 | > 100 | – | – | – | – | – | – | – | – | – | –
CCC[CH2][Sn]1([CH2]CCC)[O]CC(CN(C)Cc2ccccc2)[O]1 (configuration not stated) | 16.2 | 27.7 | 26.8 | 24.3 | 33.2 | 4.61 | – | 12.9 | 8.09 | 20.8 | 3.47 | 14.1 | 13.9 | 11.9 | 15.6 | 1.94 | 2.37 | 3.64 | 2.76 | –
Nc1nc2c(ncn2C2C=CC(CO)C2)c(=O)[nH]1 (configuration not stated) | > 100 | > 100 | > 100 | > 100 | > 100 | > 100 | > 100 | > 100 | – | – | – | – | – | – | – | – | – | – | – | –
Cn1cnc([N+](=O)[O-])c1Sc1nccn1-c1cccc2ccccc12 | 87.5 | > 100 | > 100 | > 100 | > 100 | 22.4 | – | > 100 | 68.5 | 43.7 | – | – | – | – | – | – | – | – | – | –
CCC(=C/[C@H](C)C/C=C/C(C)=C/[C@@H](C)C(=O)[C@@H](C)[C@H](O)[C@@H](C)CC)/C=C/[C@@H]1OC(=O)C=C[C@H]1C | < 0.0465 | < 0.01 | 0.126 | < 0.01 | < 0.0115 | < 0.01 | 2.13 | 1.07 | 0.16 | – | < 0.01 | < 0.01 | < 0.01 | < 0.01 | < 0.01 | < 0.01 | 0.0201 | – | < 0.01 | < 0.01
Cc1cccc(C(C)(C)C)c1NC(=O)CC1C(=O)Nc2ccccc2S1(=O)=O (configuration not stated) | 30.4 | – | – | 24.9 | – | – | – | 13 | 7.8 | 5.19 | – | – | – | – | – | – | – | – | – | –
Nc1nnnn1CCO | > 100 | > 100 | > 100 | > 100 | > 100 | > 100 | > 100 | > 100 | – | – | – | – | – | – | – | – | – | – | – | –
Cc1cccc(C)c1NC(=O)C1C(=O)N(c2c(C)cccc2C)C(=O)/C1=N\N (configuration not stated) | > 100 | > 100 | – | > 100 | > 100 | > 100 | – | > 100 | > 100 | > 100 | – | – | – | – | – | – | – | – | – | –
NCCCCCCCn1c2c(c3ccccc3c1=O)C(=O)c1ccccc1-2 | 4.55 | 2.73 | 3.82 | 2.77 | 9.24 | 3.46 | 4.27 | 2.62 | 2.19 | – | 2.17 | 1.36 | 1.68 | 1.45 | 2.96 | 1.58 | 0.648 | – | 1.31 | 2.01
